In brackets after ≈: the same amount, converted by molar mass.
Compound | solubility (20 °C) | solubility (25 °C) | also measured
Cn1cnc2c(=O)n(C)c(=O)n(C)c2c1=O | 10.4 mM (≈ 2300 µg/mL) | – | –
CCCCCCCS | 0.07 mM (≈ 9.26 µg/mL) | – | –
O=C(O)c1oc(Cl)c(Cl)c1Cl | 6.04 mM (≈ 1300 µg/mL) | – | –
CCn1cnc2c1c(=O)n(C)c(=O)n2C | – | – | solubility (30 °C): 176 mM (≈ 36700 µg/mL)
CC(C)[C@@H](Br)C(=O)O | – | 78.9 mM (≈ 14300 µg/mL) | –
N[C@@H](C(=O)O)[C@@H](O)[C@H](O)[C@H](O)CO | 138 mM (≈ 27000 µg/mL) | – | –
CCCCCCCCCCOC(=O)c1cccnc1 | – | 0.646 mM (≈ 170 µg/mL) | –
Cc1cc(C)cc(OCC(=O)O)c1 | 4.44 mM (≈ 800 µg/mL) | – | –
CCC1OC(=O)c2cc([N+](=O)[O-])ccc21 (configuration not stated) | – | 2.82 mM (≈ 584 µg/mL) | –
NNc1cccc(S(=O)(=O)O)c1 | – | – | solubility (22 °C): 149 mM (≈ 28000 µg/mL)
O=C(O)CNC(=O)CNS(=O)(=O)c1ccc2ccccc2c1 | 2.02 mM (≈ 650 µg/mL) | – | –
CC(=O)Nc1ccc2c(c1)C(=O)OC2 | – | 2.51 mM (≈ 480 µg/mL) | –
COc1ncc2nccnc2n1 | 77.1 mM (≈ 12500 µg/mL) | – | –
NC(=O)C(Br)Br | 87.6 mM (≈ 19000 µg/mL) | – | –
C[Si](C)(O)O[Si](C)(C)O | – | 661 mM (≈ 110000 µg/mL) | –
CCCC(N)C(=O)O (racemic) | – | – | solubility (23 °C): 805 mM (≈ 94300 µg/mL)
CCCCCCC(O)C(O)C(=O)O (configuration not stated) | 28.4 mM (≈ 5400 µg/mL) | – | –
CC(C)CC(c1ccc(O)cc1)c1ccc(O)cc1 | – | – | solubility: 0.429 mM (≈ 110 µg/mL)
Cn1c(=O)cnc2cncnc21 | 123 mM (≈ 20000 µg/mL) | – | –
CC(C)c1nnc(NS(=O)(=O)c2ccc(N)cc2)s1 | 0.385 mM (≈ 115 µg/mL) | – | –
Nc1ccc(CC(=O)c2ccccc2)cc1 | – | – | solubility: 15.7 mM (≈ 3310 µg/mL)

Compound | solubility (20 °C) | solubility (25 °C) | also measured
O=C(Cc1ccccc1)N[C@@H](CSSC[C@H](NC(=O)Cc1ccccc1)C(=O)O)C(=O)O | – | – | solubility: 14.7 mM (≈ 7000 µg/mL)
O=S(=O)(CCCl)CCCl | 31.4 mM (≈ 6000 µg/mL) | – | –
CCCCOC(=O)C(C)OC(=O)C(C)O (configuration not stated) | – | 42.2 mM (≈ 9200 µg/mL) | –
CCN[C@@H](C)C(=O)O (racemic) | – | 4490 mM (≈ 526000 µg/mL) | –
CCOc1nc(OCC)nc(OCC)n1 | – | 32.8 mM (≈ 7000 µg/mL) | –
Oc1ccc(C2CCCCC2)cc1 | – | 0.34 mM (≈ 60 µg/mL) | –
Cn1c(=O)ncc2[nH]c(=O)[nH]c21 | – | – | solubility: 161 mM (≈ 26700 µg/mL)
Cn1c(=O)c2n[se]nc2n(C)c1=O | 5.02 mM (≈ 1230 µg/mL) | – | –
CCCOP(=O)(OCC)OCCC | – | 105 mM (≈ 22000 µg/mL) | –
OCC(O)C1OC(Oc2ccccc2)C(O)C(O)C1O (configuration not stated) | 27.9 mM (≈ 8000 µg/mL) | – | –
COC(=O)CCCCCCCCC(=O)OC | – | – | solubility: 0.521 mM (≈ 120 µg/mL)
CN(C)C(=O)c1cccc(C(=O)N(C)C)c1 | – | – | solubility (30 °C): 3070 mM (≈ 676000 µg/mL)
CC(C)(C(=O)O)C(C)(CC(=O)O)C(=O)O (configuration not stated) | 774 mM (≈ 169000 µg/mL) | – | –
O=C(O)c1ccccc1C(=O)c1ccc(Br)cc1 | – | – | solubility (30 °C): 0.983 mM (≈ 300 µg/mL)
CCOC(=O)N(C)CC | – | – | solubility: 381 mM (≈ 50000 µg/mL)
O=C1CCCCCCCCN1 | – | – | solubility (22 °C): 84.4 mM (≈ 13100 µg/mL)
Cc1ccc(/N=N/c2cc(C)ccc2N)cc1 | – | 0.125 mM (≈ 28.2 µg/mL) | –
O=C1C=CC(=NO)C=C1 | 28.4 mM (≈ 3500 µg/mL) | – | –
CCOP(=O)(OCC)OCC(C)C | – | 66.6 mM (≈ 14000 µg/mL) | –
CC(=O)Nc1ccc(Cl)cc1C | 4.9 mM (≈ 900 µg/mL) | – | –
CCCCOCCOC(N)=O | – | – | solubility: 310 mM (≈ 50000 µg/mL)

Compound | solubility (20 °C) | solubility (25 °C) | also measured
O=C(O)C(Cl)=C(Br)Br | 205 mM (≈ 54300 µg/mL) | – | –
CCOC(=O)c1ccc(O)c(Cl)c1 | – | – | solubility (30 °C): 0.598 mM (≈ 120 µg/mL)
S=c1nc[nH]c2nccnc12 | 2.25 mM (≈ 370 µg/mL) | – | –
CC(CC(C)C(=O)O)C(=O)O (configuration not stated) | – | 350 mM (≈ 56000 µg/mL) | –
O=C(O)CC(O)C(=O)O (configuration not stated) | 5790 mM (≈ 777000 µg/mL) | – | –
NC(=O)c1ccc(S(N)(=O)=O)cc1 | – | 4.99 mM (≈ 1000 µg/mL) | –
O=C(O)CNC(=O)c1ccco1 | – | – | solubility (21 °C): 187 mM (≈ 31700 µg/mL)
CCCC[C@H](O)C(C)C | – | 15.4 mM (≈ 2010 µg/mL) | –
O=c1[nH]c(-c2ccccc2)ncc1Br | – | – | solubility: 0.332 mM (≈ 83.3 µg/mL)
CC(C)COC(=O)c1ccc(N)cc1 | 1.14 mM (≈ 220 µg/mL) | – | –
CCOc1ccc(N(C(C)=O)C(C)=O)cc1 | – | 11.3 mM (≈ 2500 µg/mL) | –
OCc1c(Cl)c(Cl)c(Cl)c(Cl)c1Cl | 0.00713 mM (≈ 2 µg/mL) | – | –
CC(C)(CCC(C)(C)CC(=O)O)CC(=O)O | – | 0.738 mM (≈ 170 µg/mL) | –
Oc1cc2ccccc2cc1C1=NCCN1 | 0.499 mM (≈ 106 µg/mL) | – | –
CCCCCCCCOC(=O)c1cc(O)c(O)c(O)c1 | 0.127 mM (≈ 36 µg/mL) | – | –
CSCCC(NC(C)=O)C(=O)O (racemic) | – | 1070 mM (≈ 205000 µg/mL) | –
NC(=O)NN=C1CCCCC1 | 38.7 mM (≈ 6000 µg/mL) | – | –
CN(C)c1cccc(S(=O)(=O)O)c1 | – | 1990 mM (≈ 400000 µg/mL) | –
CCCCOP(=O)(O)OCCCC | – | 81.8 mM (≈ 17200 µg/mL) | –
CCOC(=O)c1ccccc1C(=O)c1ccccc1 | 0.393 mM (≈ 100 µg/mL) | – | –
O=Cc1ccc(Br)o1 | 28.6 mM (≈ 5000 µg/mL) | – | –

Compound | solubility (20 °C) | solubility (25 °C) | also measured
CCC(=O)OC(C)C(=O)OC (configuration not stated) | – | 137 mM (≈ 22000 µg/mL) | –
NC(=O)c1cccc(S(N)(=O)=O)c1 | – | 6.99 mM (≈ 1400 µg/mL) | –
C[C@H](NC=O)C(=O)O (racemic) | 1020 mM (≈ 120000 µg/mL) | – | –
CCOC(=O)CCc1ccccc1 | – | 1.23 mM (≈ 220 µg/mL) | –
CCSC(C(=O)O)c1ccccc1 (configuration not stated) | – | 27 mM (≈ 5300 µg/mL) | –
Cc1ncc2nccnc2n1 | 760 mM (≈ 111000 µg/mL) | – | –
CCCC(Br)(CCC)C(N)=O | – | – | solubility: 14.9 mM (≈ 3300 µg/mL)
N[C@@H](Cc1cc([N+](=O)[O-])c(O)c([N+](=O)[O-])c1)C(=O)O | – | – | solubility: 30.7 mM (≈ 8330 µg/mL)
Cn1cnc2nc(Cl)nc(Cl)c21 | – | – | solubility: 70.4 mM (≈ 14300 µg/mL)
O=C(O)C1=CCCCC1 | 55.5 mM (≈ 7000 µg/mL) | – | –
Cc1ccc(S(N)(=O)=O)cc1N | – | – | solubility (24 °C): 12.1 mM (≈ 2260 µg/mL)
OCc1ccc(Br)cc1 | 11.8 mM (≈ 2200 µg/mL) | – | –
CCSC(=S)N[C@@H](CC(=O)O)C(=O)O | – | 41.1 mM (≈ 9750 µg/mL) | –
Oc1cccc2ccnnc12 | 3.9 mM (≈ 570 µg/mL) | – | –
CC(=O)Nc1ccc(C)cc1F | 18.2 mM (≈ 3040 µg/mL) | – | –
Oc1ncncc1Br | – | – | solubility: 357 mM (≈ 62500 µg/mL)
Cc1cc(O)c(C(=O)O)cc1Cl | – | – | solubility (21 °C): 0.75 mM (≈ 140 µg/mL)
NCCc1ccc(O)c([N+](=O)[O-])c1 | – | – | solubility: 45.7 mM (≈ 8330 µg/mL)
Cc1ccccc1OCC(=O)O | – | 3.61 mM (≈ 600 µg/mL) | –

From the OPERA property sets (Mansouri et al. 2018)
